Measured values reported in patent publication US20140213647A1, “COMPOUND USEFUL FOR PREVENTING OR TREATING IRRITABLE BOWEL SYNDROME AND COMPOSITION INCLUDING SAME” (SK CHEMICALS CO., LTD., priority 2011, published 2014).

What was measured:
[1] = target: T1, human-derived NK2 receptor (Homo sapiens, UniProt P21452); assay: Inhibiting activity against NK2 receptor ([3H]SR-48968 competitive binding); conditions: cell membranes expressing human-derived NK2 receptor, ligand [3H]SR-48968, 25° C. 90 minutes
T1 construct: expressed in transfected cells
T1 sequence (P21452 1-398): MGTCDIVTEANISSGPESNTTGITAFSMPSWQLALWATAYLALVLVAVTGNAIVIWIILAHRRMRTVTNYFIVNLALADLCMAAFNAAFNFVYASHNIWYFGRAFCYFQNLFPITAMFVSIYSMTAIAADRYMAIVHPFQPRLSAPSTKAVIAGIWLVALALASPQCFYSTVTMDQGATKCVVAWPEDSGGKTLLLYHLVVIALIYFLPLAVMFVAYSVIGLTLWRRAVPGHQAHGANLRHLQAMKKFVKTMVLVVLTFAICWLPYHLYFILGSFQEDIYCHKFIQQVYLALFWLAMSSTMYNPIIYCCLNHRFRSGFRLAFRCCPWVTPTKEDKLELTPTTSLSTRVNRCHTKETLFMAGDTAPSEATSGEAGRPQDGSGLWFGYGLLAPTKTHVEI
Method: Each of 100 μl of a modified HEPES buffer was added to each well, to which the compound (50, 500, 1500, 5000, 15000 μM) dissolved in DMSO and a positive control, MEN-10,376 (0.5, 2.5, 5, 25, 50 μM) were added in an amount of 5 μl, respectively. Thereto, each of 50 μl of a NK2 receptor ligand, [3H]SR-48968 was added, and each of 100 μl of a modified HEPES buffer having cell membranes in which a human-derived NK2 receptor is expressed was added. After incubating with stirring (200 rpm) at 25° C. for 90 minutes, the resultants were filtered and washed 3 times.
The number of cell membranes bound with an isotope ([^3H]SR-48968) was calculated by means of […] measurement. At this time, as a test material is strongly bound with the receptor, the ligand [^3H]SR-48968 is not bound and measured values decrease (competitive bonding). The value for the well added with only the ligand was represented as “0% inhibition”, and the well having no ligand, as “100% inhibition’, and the inhibition rate was measured depending on the amount of drug concentration.

[2] = target: T2, human-derived motilin receptor (Homo sapiens, UniProt O43193); assay: Inhibiting activity against motilin receptor (radioligand binding); conditions: cell membranes expressing human-derived motilin receptor, 25° C. 150 minutes
T2 construct: expressed in transfected cells
T2 sequence (O43193 whole entry): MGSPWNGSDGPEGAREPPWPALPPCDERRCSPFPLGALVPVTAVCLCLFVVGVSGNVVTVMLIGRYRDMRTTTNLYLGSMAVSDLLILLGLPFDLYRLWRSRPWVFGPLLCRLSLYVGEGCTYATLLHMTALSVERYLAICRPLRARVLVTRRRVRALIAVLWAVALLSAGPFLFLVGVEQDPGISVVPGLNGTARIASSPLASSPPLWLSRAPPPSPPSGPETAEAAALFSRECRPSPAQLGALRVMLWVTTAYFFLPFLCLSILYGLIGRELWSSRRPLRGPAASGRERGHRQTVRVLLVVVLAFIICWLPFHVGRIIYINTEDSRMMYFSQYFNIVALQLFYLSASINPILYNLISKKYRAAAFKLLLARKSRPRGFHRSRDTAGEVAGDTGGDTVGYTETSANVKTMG
Method: Each of 100 μl of a modified Tris-HCl buffer was added to each well, to which the compound (50, 500, 1500, 5000, 15000 μM) of the present invention dissolved in DMSO and a positive control, motilin (2.5, 5, 25, 50, 250 μM) were added in an amount of 5 μl, respectively. Thereto, each of 50 μl of a motilin receptor ligand, […] was added, and each of 100 μl of a modified Tris-HCl buffer having cell membranes in which a human-derived motilin receptor is expressed was added. After incubating at 25° C. for 150 minutes, the resultants were filtered and washed 3 times. The number of cell membranes bound with an isotope was calculated by means of β-ray measurement.

[3] = target: T3, human-derived melanocortin MC1 receptor (Homo sapiens, UniProt Q01726); assay: Inhibiting activity against melanocortin MC1 receptor ([125I]NDP-a-MSH binding); conditions: cell membranes expressing human-derived melanocortin MC1 receptor, ligand [125I]NDP-a-MSH, 37° C. 120 minutes
T3 construct: expressed in transfected cells
T3 sequence (Q01726 whole entry): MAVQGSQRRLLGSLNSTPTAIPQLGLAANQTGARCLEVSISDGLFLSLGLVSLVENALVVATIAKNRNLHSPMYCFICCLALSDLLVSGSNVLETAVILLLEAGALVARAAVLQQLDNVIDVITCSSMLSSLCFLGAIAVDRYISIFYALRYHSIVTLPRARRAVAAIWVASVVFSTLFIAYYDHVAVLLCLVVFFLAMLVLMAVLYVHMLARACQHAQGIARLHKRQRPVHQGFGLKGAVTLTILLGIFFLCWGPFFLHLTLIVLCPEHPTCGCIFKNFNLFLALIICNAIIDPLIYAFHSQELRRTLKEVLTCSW
Method: (§1) Each of 100 μl of a modified HEPES-KOH buffer was added to each well, to which the compound (50, 500, 1500, 5000, 15000 μM) of the present invention dissolved in DMSO and a positive control, NDP-a-MSH (0.25, 0.5, 2.5, 5, 25 nM) were added in an amount of 5 μl, respectively. Thereto, each of 50 μl of a melanocortin MC1 receptor ligand, [^125l] NDP-a-MSH was added, and each of 100 μl of a modified Tris-HCl buffer having cell membranes in which a human-derived melanocortin MC1 receptor is expressed was added. After incubating at 37° C. for 120 minutes, the resultants were filtered and washed 3 times. The number of cell membranes bound with an isotope was calculated by means of β-ray measurement.

[4] = target: T4, human-derived cannabinoid CB2 receptor (Homo sapiens, UniProt P34972); assay: Inhibiting activity against cannabinoid CB2 receptor ([3H]WIN-55,212-2 binding); conditions: cell membranes expressing human-derived cannabinoid CB2 receptor, ligand [3H]WIN-55,212-2, 37° C. 90 minutes
T4 construct: expressed in transfected cells
T4 sequence (P34972 whole entry): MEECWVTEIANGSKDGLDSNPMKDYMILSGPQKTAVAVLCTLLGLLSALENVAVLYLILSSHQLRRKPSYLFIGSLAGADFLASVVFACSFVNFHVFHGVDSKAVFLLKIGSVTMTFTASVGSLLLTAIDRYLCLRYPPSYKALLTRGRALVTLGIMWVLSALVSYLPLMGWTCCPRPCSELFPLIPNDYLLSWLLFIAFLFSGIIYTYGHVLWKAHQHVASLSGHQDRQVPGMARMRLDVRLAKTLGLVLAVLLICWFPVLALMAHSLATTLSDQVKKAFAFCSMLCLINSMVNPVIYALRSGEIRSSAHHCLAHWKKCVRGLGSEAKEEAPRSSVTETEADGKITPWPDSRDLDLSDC
Method: as §1, with “HEPES” for “HEPES-KOH”, “R(+)-WIN-55, 212-2 (0.05, 0.25,” for “NDP-a-MSH (0.25,”, “5” for “5, 25”, “cannabinoid CB2” for “melanocortin MC1”, “[^3H]WIN-55, 212-2” for “[^125l] NDP-a-MSH”, “90” for “120”

[5] = target: T5, human-derived guanylate cyclase (Homo sapiens, UniProt Q02153); assay: Activity against guanylate cyclase (cGMP production, EIA); type: biochemical; conditions: Sf9 lysate with human-derived guanylate cyclase, antagonistic activity vs 30 μM sodium nitroprusside, cGMP by EIA
T5 construct: made in house; host or cells: Sf9 insect cells (lysate used)
T5 sequence (Q02153 1-619): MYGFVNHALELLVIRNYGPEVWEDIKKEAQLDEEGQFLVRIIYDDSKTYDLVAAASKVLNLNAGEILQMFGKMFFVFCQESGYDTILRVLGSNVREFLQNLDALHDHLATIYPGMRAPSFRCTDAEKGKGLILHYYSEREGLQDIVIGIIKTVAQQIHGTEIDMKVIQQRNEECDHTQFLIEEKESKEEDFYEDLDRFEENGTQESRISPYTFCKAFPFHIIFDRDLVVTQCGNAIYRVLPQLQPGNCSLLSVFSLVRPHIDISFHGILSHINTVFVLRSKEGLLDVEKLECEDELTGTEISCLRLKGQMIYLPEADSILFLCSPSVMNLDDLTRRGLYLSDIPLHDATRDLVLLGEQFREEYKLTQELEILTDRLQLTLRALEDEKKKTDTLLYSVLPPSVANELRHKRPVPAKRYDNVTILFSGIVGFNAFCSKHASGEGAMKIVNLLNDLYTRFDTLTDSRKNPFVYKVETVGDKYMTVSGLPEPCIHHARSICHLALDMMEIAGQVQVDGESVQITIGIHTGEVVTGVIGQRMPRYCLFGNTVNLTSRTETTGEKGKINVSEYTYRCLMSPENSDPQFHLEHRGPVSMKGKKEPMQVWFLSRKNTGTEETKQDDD
T5 sequence (Q02108 1-690 partner): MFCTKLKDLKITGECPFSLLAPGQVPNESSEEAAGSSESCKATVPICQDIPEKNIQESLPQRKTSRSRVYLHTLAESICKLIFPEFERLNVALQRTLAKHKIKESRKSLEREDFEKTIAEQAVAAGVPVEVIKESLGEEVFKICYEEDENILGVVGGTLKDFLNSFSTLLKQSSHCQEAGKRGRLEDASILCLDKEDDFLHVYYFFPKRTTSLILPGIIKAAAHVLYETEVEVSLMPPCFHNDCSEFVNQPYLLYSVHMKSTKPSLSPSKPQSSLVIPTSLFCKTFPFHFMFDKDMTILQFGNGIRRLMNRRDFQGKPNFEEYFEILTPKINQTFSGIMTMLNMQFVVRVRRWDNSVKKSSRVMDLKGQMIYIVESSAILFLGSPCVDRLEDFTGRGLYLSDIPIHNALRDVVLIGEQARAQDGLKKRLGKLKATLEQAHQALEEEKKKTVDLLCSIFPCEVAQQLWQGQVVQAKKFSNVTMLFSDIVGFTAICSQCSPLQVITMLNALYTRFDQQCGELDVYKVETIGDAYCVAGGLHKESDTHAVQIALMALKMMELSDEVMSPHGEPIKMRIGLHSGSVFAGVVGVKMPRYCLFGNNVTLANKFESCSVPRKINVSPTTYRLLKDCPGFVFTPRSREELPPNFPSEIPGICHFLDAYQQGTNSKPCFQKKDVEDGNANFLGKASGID
Method: Plasmid in which a human-derived guanylate cyclase is expressed was transfected to Sf9 insect cells, followed by proliferation and then lysis. The compound (1, 10, 30, 100, 300 μM) of the present invention dissolved in DMSO and a positive control, ODQ (1H-[1,2,4]oxadiazolo[4,3-a]quinoxalin-1-one, 0.5, 0.1, 0.05, 0.01, 0.005 μM) were added to each well, to which guanylate cyclase (the lysed solution) which is mixed in a modified Tris-HCl buffer was added until its final concentration became to 0.013 μg/ml. After incubating at 37° C. for 20 minutes, 1N HCl was added to end the reaction.
After removing the guanylate cyclase, an amount of cGMP produced from the reaction was subject to quantitative measurement using an EIA kit. The amount of cGMP increases as the guanylate cyclase converting GTP to cGMP is activated. The activation of the guanylate cyclase was calculated based on the assumption that the result of sodium nitroprusside (30 μM), an agonist of the guanylate cyclase was 100%. The antagonistic activity against the guanylate cyclase was calculated based on the assumption that the result when treated only with 30 μM of sodium nitroprusside was 100% compared to when treated with both sodium nitroprusside and a drug.

[6] = test system: visceral hypersensitivity in colitis-induced rats; assay: Suppressing effect of visceral pain in CRD (colorectal distension) model; type: in vivo, Sprague-Dawley male rats; conditions: CRD test about 1 hour after dosing
Method: To evaluate the suppressing effect of the separated (6E,12E)-3-hydroxytetradeca-6,12-dien-8,10-diyn-1-yl acetate on the visceral hypersensitivity, a Colorectal Distension (CRD) test that has been often used in the evaluation of drugs for IBS was conducted as follows (see J H. La et al., World J. Gastroenterol. Dec., 9(12): p 2791-2795, 2003).
250 to 300 g of Sprague-Dawley male rats (Charles River) were used for the CRD test. Two rats per one cage were reared in a room of 25° C., humidity 50%, and day-night 12:12 hours of cycle. Rats were freely provided with drink water and food, and were adapted to the room condition for 5 days, followed by inducing colitis. […]
A 2 cm-long rubber balloon was inserted into the rectum of each rat, and was filled with 37° C-warmed water in stages, from 0.1 to 1.0 ml. The appearing pain reactions of rats were recorded. The specific behaviors of CRD test animals were represented with AWR (abdominal withdrawal reflex), which was indirectly and quantitatively analyzed by AWR scores given on each behavior, and the AWR scores were used for identifying the abdominal pain reaction. […]
The presence of visceral hypersensitivity was checked in CRD rats 7 days after inducing colitis. […] Student's t-test (p<0.01 (**) or p<0.001 (***)) was used for statistical approach, and significance relative to the vehicle-administered group was detected. […]

## C/C=C/C#CC#C/C=C/CCC(O)CCOC(C)=O (stereo not shown) [(6E,12E)-3-hydroxytetradeca-6,12-dien-8,10-diyn-1-yl acetate]
[1]
  IC50: 30.6 µM
[2]
  IC50: 29.1 µM
[3]
  IC50: 133 µM
[4]
  IC50: 45 µM
[5]
  IC50: 18.9 µM
[6]; 100 mg/kg orally, Student's t-test
  suppressing effect against visceral hypersensitivity relative to the vehicle group (AWR score / AUC, FIG. 2): significant suppressing effect against visceral hypersensitivity
[6]; 10, 30 and 100 mg/kg orally
  suppressing effect against visceral pain (AWR score / AUC, FIG. 2): suppressing effect against visceral pain occurred in visceral hypersensitivity as its concentration increased
